Results reported in PubChem BioAssay AID330 (DTP/NCI, 2004).
Several values for one entry are separate records, joined by “and”; a condition that tells them apart may be missing. Equal values may be shown once. Inconclusive results and toxic doses are left out. How the source made its calls: active means survival T/C of 150% or more; inactive means T/C below 125% in these data.

Tested on: P388 leukemia ip, CD2F1 mice, survival T/C
Experiment: NCI In Vivo Anticancer Drug Screen. Data for tumor model P388 Leukemia (intraperitoneal) in CD2F1 (CDF1) mice
Details: endpoint: median survival time, higher = longer survival
Outline: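 Mice carrying the transplanted tumor received test compound or vehicle. Survival was recorded in each group, and the value is the treated-group measurement divided by that of the vehicle-treated control group.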

[1] = dose: 50.0 mg/kg/injection, schedule: Q01DX009 (ip), vehicle: saline with Tween-80
[2] = dose: 100.0 mg/kg/injection, schedule: Q01DX009 (ip), vehicle: saline with Tween-80
[3] = dose: 200.0 mg/kg/injection, schedule: Q01DX009 (ip), vehicle: saline with Tween-80

Measured: T/C

O=[N+](N=c1ccn([O-])cc1)c1cc[n+]([O-])cc1
inactive: dose: 1.56 mg/kg/injection, schedule: Q01DX009 (ip), vehicle: DMSO 107 % of control | dose: 3.0 mg/kg/injection, schedule: Q01DX009 (ip), vehicle: other 107 % of control | dose: 3.12 mg/kg/injection, schedule: Q01DX009 (ip), vehicle: DMSO 100 % of control | dose: 6.0 mg/kg/injection, schedule: Q01DX009 (ip), vehicle: other 102 % of control | dose: 6.25 mg/kg/injection, schedule: Q01DX009 (ip), vehicle: DMSO 107 % of control | dose: 12.5 mg/kg/injection, schedule: Q01DX009 (ip), vehicle: DMSO 100 % of control | dose: 12.5 mg/kg/injection, schedule: Q01DX009 (ip), vehicle: other 98 % of control | dose: 25.0 mg/kg/injection, schedule: Q01DX009 (ip), vehicle: DMSO 100 % of control | dose: 25.0 mg/kg/injection, schedule: Q01DX009 (ip), vehicle: other 109 % of control | dose: 50.0 mg/kg/injection, schedule: Q01DX009 (ip), vehicle: other 109 % of control

CC(C)(C)C(C(=O)O)C(=O)O
inactive: dose: 12.5 mg/kg/injection, schedule: Q01DX009 (ip), vehicle: saline 101 % of control | dose: 25.0 mg/kg/injection, schedule: Q01DX009 (ip), vehicle: saline 99 % of control | dose: 50.0 mg/kg/injection, schedule: Q01DX009 (ip), vehicle: saline 96 % of control | dose: 100.0 mg/kg/injection, schedule: Q01DX009 (ip), vehicle: saline 99 % of control

C1=C[N-]c2c3c(ccc2=C1)=CC=C[N-]3.N#[O+].O.O=N[O-].O=N[O-].[Ru+2]
inactive: dose: 3.13 mg/kg/injection, schedule: Q04DX003 (ip), vehicle: water 107 % of control | dose: 12.5 mg/kg/injection, schedule: Q04DX003 (ip), vehicle: water 121 % of control

COC(=O)C1(CC(=O)CC(=O)CC2(C(=O)OC)NC(=S)NC(=O)C2C#N)NC(=S)NC(=O)C1C#N (stereo unspecified)
inactive: dose: 60.0 mg/kg/injection, schedule: Q01DX005 (ip), vehicle: saline with Tween-80 106 % of control | dose: 120.0 mg/kg/injection, schedule: Q01DX005 (ip), vehicle: saline with Tween-80 100 % of control | dose: 240.0 mg/kg/injection, schedule: Q01DX005 (ip), vehicle: saline with Tween-80 100 % of control

COc1ccc(CC(C#N)c2ccc(Cl)cc2)cc1 (stereo unspecified)
inactive: dose: 50.0 mg/kg/injection, schedule: Q01DX009 (ip), vehicle: Klucel (hydroxypropylcellulose) (HPC) 107 % of control | dose: 100.0 mg/kg/injection, schedule: Q01DX009 (ip), vehicle: Klucel (hydroxypropylcellulose) (HPC) 101 % of control | dose: 200.0 mg/kg/injection, schedule: Q01DX009 (ip), vehicle: Klucel (hydroxypropylcellulose) (HPC) 98 % of control | dose: 400.0 mg/kg/injection, schedule: Q01DX009 (ip), vehicle: Klucel (hydroxypropylcellulose) (HPC) 98 % of control

CC(=O)Nc1ccc(S(=O)(=O)c2ccc([N+](=O)[O-])s2)cc1
inactive: dose: 25.0 mg/kg/injection, schedule: Q04DX003 (ip), vehicle: Klucel (hydroxypropylcellulose) (HPC) 105 % of control | dose: 50.0 mg/kg/injection, schedule: Q04DX003 (ip), vehicle: Klucel (hydroxypropylcellulose) (HPC) 102 % of control

C=C1C2CCC3(C)C(c4ccoc4)OC(=O)CC13OC1CC(=O)C(C)(C)C(CC(=O)OC)C12C (stereo unspecified)
inactive: dose: 25.0 mg/kg/injection, schedule: Q01DX009 (ip), vehicle: saline with Tween-80 99 % of control | [1] 99 % of control | [2] 99 % of control | [3] 98 % of control

c1ccc(-c2cc3nccnc3[nH]2)cc1
inactive: dose: 15.0 mg/kg/injection, schedule: Q01DX005 (ip), vehicle: Klucel (hydroxypropylcellulose) (HPC) 100 % of control | dose: 30.0 mg/kg/injection, schedule: Q01DX005 (ip), vehicle: Klucel (hydroxypropylcellulose) (HPC) 92 % of control | dose: 60.0 mg/kg/injection, schedule: Q01DX005 (ip), vehicle: Klucel (hydroxypropylcellulose) (HPC) 87 % of control and 89 % of control | dose: 120.0 mg/kg/injection, schedule: Q01DX005 (ip), vehicle: Klucel (hydroxypropylcellulose) (HPC) 97 % of control

COc1cc2c(cc1OC)C(=O)C(Br)CC2 (stereo unspecified)
inactive: [1] 104 % of control | [2] 113 % of control

C[C@H]1C[C@@H]2[C@H]([C@@H](O)C[C@@]3(C)[C@H]2CC[C@]3(O)C(=O)CF)[C@@]2(C)C=CC(=O)C=C12
inactive: dose: 10.0 mg/kg/injection, schedule: Q01DX009 (ip), vehicle: saline with Tween-80 104 % of control | dose: 100.0 mg/kg/injection, schedule: Q04DX003 (ip), vehicle: saline with Tween-80 100 % of control | [3] 95 % of control | dose: 200.0 mg/kg/injection, schedule: Q04DX003 (ip), vehicle: saline with Tween-80 100 % of control | dose: 400.0 mg/kg/injection, schedule: Q01DX009 (ip), vehicle: saline with Tween-80 86 % of control | dose: 400.0 mg/kg/injection, schedule: Q04DX003 (ip), vehicle: saline with Tween-80 100 % of control
